Data from patent US20220136032A1, “SELECTION MEDIUM FOR BACTERIA BELONGING TO GENUS PSEUDOMONAS AND USE THEREOF” (KABUSHIKI KAISHA YAKULT HONSHA, priority 2019, published 2022).
Structures can show the parent of a compound that is named as a salt. Where two headings read alike, the source gives them in different places. Each block holds one molecule with its values, some of them ahead of it.

Key:
Assay in all cases: Measurement of minimum inhibitory concentrations (MICs), liquid medium, OD 660 nm
P. aeruginosa = assay type: cell-based, Pseudomonas aeruginosa; conditions: for MIC: Pseudomonas aeruginosa, read-out: MIC (μg/ml) P. aeruginosa
Experimental: (§1) Colonies of E. coli, E. faecium and C. kerstersii, which formed colonies on the plate medium obtained by mixing NAC medium and TSA medium at a ratio of 1:20, and colonies of P. aeruginosa were taken, added to 500 μl of the basal medium, stirred and subjected to the following experiment.
The antibacterial agents were dissolved in sterilized distilled water at 51.2 mg/ml and then sterilized by filtration through a membrane filter of 0.45 μm (DISMIC-25cs: Toyo Roshi).
(§2) After adding 5 μl of the bacterial solutions to the wells and thoroughly stirring, the bacteria were cultured at 37° C. for 24 hours. After culturing, the OD values (660 nm) were measured, and the lowest concentrations of the antibacterial agents at which the growth was inhibited as compared to that of the negative control (MICs: minimum inhibitory concentrations) were determined. As the negative control, the liquid medium to which the antibacterial agents were not added was used.

E. coli = assay type: cell-based; conditions: Escherichia coli; Trypticase Soy Broth, 37° C. 24 hours; read-out: MIC (μg/ml) E. coli
Experimental: as §1
(§3) As antibacterial agents to which the sensitivity of P. aeruginosa is low and to which the sensitivities of E. coli, E. faecium and C. kerstersii are high, cefotaxime sodium salt (Sigma (referred to as “Cefotaxime” below)), ceftizoxime sodium (Fujisawa Healthcare (referred to as “Ceftizoxime” below)), vancomycin hydrochloride (Sigma (referred to as “Vancomycin” below)), minocyclin hydrochloride (Sigma (referred to as “Minocyclin” below)) and cefalotin sodium salt (Sigma (referred to as “Cefalotin” below)) were selected. The antibacterial agents were dissolved in sterilized distilled water at 51.2 mg/ml and then sterilized by filtration through a membrane filter of 0.45 μm (DISMIC-25cs: Toyo Roshi).
as §2, with “As the negative control, the liquid medium to which the antibacterial agents were not added was used.” left out

C. kerstersii = assay type: cell-based, Comamonas kerstersii; conditions: for MIC: Comamonas kerstersii, read-out: MIC (μg/ml) C. kerstersii
Experimental: as §1, §3, §2

E. faecium = assay type: cell-based, Enterococcus faecium; conditions: Trypticase Soy Broth, 37° C. 24 hours
Experimental: as §1, §3
as §2, with “As the negative control, the liquid medium to which the antibacterial agents were not added was used.” left out

[1] = Trypticase Soy Broth, 37° C. 24 hours

MIC (P. aeruginosa; [1]): 64 µg/mL | MIC (E. coli): < 0.5 µg/mL
SMILES: CO/N=C(\C(=O)N[C@@H]1C(=O)N2C(C(=O)O)=CCS[C@H]12)c1csc(N)n1 [Ceftizoxime, ceftizoxime sodium]

MIC (P. aeruginosa; [1]): 16 µg/mL | MIC (E. coli): < 0.5 µg/mL
SMILES: CO/N=C(\C(=O)N[C@@H]1C(=O)N2C(C(=O)O)=C(COC(C)=O)CS[C@H]12)c1csc(N)n1 [Cefotaxime, cefotaxime sodium salt]

SMILES: CN[C@H](CC(C)C)C(=O)N[C@H]1C(=O)N[C@@H](CC(N)=O)C(=O)N[C@H]2C(=O)N[C@H]3C(=O)N[C@H](C(=O)N[C@H](C(=O)O)c4cc(O)cc(O)c4-c4cc3ccc4O)[C@H](O)c3ccc(c(Cl)c3)Oc3cc2cc(c3O[C@@H]2O[C@H](CO)[C@@H](O)[C@H](O)[C@H]2O[C@H]2C[C@](C)(N)[C@H](O)[C@H](C)O2)Oc2ccc(cc2Cl)[C@H]1O [Vancomycin, vancomycin hydrochloride]
MIC (P. aeruginosa; 24 h): > 256 µg/mL | Sensitivity of C. kerstersii to the antibacterial agent (C. kerstersii): low | MIC (C. kerstersii; 24 h): 128 µg/mL

MIC (P. aeruginosa; [1]): > 256 µg/mL | MIC (C. kerstersii; [1]): 16 µg/mL | MIC (E. faecium; Enterococcus faecium, read-out: MIC (μg/ml) E. faecium): 8 µg/mL
SMILES: CC(=O)OCC1=C(C(=O)O)N2C(=O)[C@@H](NC(=O)Cc3cccs3)[C@H]2SC1 [Cefalotin, cefalotin sodium salt]
Sensitivity of P. aeruginosa to the antibacterial agent (P. aeruginosa): low

MIC (μg/ml) P. aeruginosa (P. aeruginosa; [1]): <0.5 µg/mL | MIC (μg/ml) C. kerstersii (C. kerstersii; [1]): <0.5 µg/mL | MIC (μg/ml) E. faecium (E. faecium): <0.5 µg/mL
SMILES: CN(C)c1ccc(O)c2c1C[C@@H]1C[C@@H]3[C@H](N(C)C)C(=O)C(C(N)=O)=C(O)[C@@]3(O)C(=O)C1=C2O.Cl [Minocyclin, minocyclin hydrochloride]
Sensitivity of P. aeruginosa to the antibacterial agent (P. aeruginosa): sensitive
